Measured values: patent US20060292076A1, “Antimicrobial mediated ozone generation” (priority 2002, published 2006)
“Also recorded” adds a separate entry of the source.

Columns and labels:
[1] = H2O2 formation with hematoporphyrin IX sensitization and visible light (sensitization and quenching assays); format: biochemical; conditions: D2O or NaN3 (40 mM)
Experimental: Sensitization and Quenching Assays. A solution of 31127 (100 μl of horse IgG, 6.7 μM) in PBS (pH 7.4, 4% dimethylformamide) and hematoporphyrin IX (40 μM) was placed in proximity to a strip light. Hydrogen peroxide concentration was determined as described herein. […]
Assay for H2O2 production as a function of the efficiency of ^1O2 formation via ^3O2 sensitization with hematoporphyrin IX: The assay is a modification of a procedure developed by H. Sakai and co-workers, Proc. SPE-Int. Soc. Opt. Eng., 2371, 264 (1995). In brief, the horse poly-IgG (1 mg/mL) in PBS (50 mM, pH 7.4) and hematoporphyrin IX (40 μM) is irradiated with white light from a transilluminator. Aliquots are removed (50 μL) and the concentration of H2O2 and 3-aminophthalic acid measured simultaneously. H2O2 concentration was measured by the amplex red assay (Zhou et al., Anal. Biochem., 253, 162 (1997)). 3-Aminophthalic acid concentration was measured by reversed-phase HPLC on a Hitachi D4000 series machine with an Adsorbosphere-C18 column, a UV detector at 254 nm, and a mobile phase of acetonitrile/water (0.1% TFA) of 18:82 at 1 mL/min (retention time of luminol=7.4 min and 3-aminophthalic acid 3.5 min). The concentrations of luminol and 3-aminophthalic acid were determined by comparison of peak height and area to control samples. […]

[2] = Production of hydrogen peroxide by immunoglobulins and proteins under UV irradiation (Amplex Red assay); format: biochemical; conditions: for ability of non-immunoglobulin proteins to reduce ^1O2 / generate H2O2: irradiation in PBS
Experimental: All assays were carried out in PBS (10 mM phosphate/160 mM sodium chloride, pH 7.4). Commercial protein solution samples were dialyzed into PBS as necessary. Amplex Red hydrogen peroxide assay kits (A-12212) were obtained from Molecular Probes.
Antibody/Protein Irradiation. Unless otherwise stated, the assay solution (100 μl, 6.7 μM protein in PBS, pH 7.4) was added to a glass vial, sealed with a screw-cap, and irradiated with either UV (312 nm, […] Fischer-Biotech transilluminator) or visible light.
Quantitative Assay for Hydrogen Peroxide. An aliquot (20 μl) from the protein solution was removed and added into a well of a 96-well microtiter plate (Costar) containing reaction buffer (80 μL). Working solution (100 μl/400 μM Amplex Red reagent ½ units/ml horseradish peroxidase) was then added, and the plate was incubated in the dark for 30 min. The fluorescence of the well components was then measured using a CytoFluor Multi well Plate Reader (Series 4000, PerSeptive Biosystems, Framingham, Mass.; Ex/Em: 530/580 nm). The hydrogen peroxide concentration was determined using a standard curve. All experiments were run in duplicate, and the rate is quoted as the mean of at least two measurements.

E. coli = test: Bactericidal assay, E. coli (strain not singled out or both serotypes); format: cell-based
Experimental: (§1) In a typical experiment, a culture of E. coli (in log phase growth, OD600=0.2-0.3) was repeatedly pelleted (3×3,500 rpm) and resuspended in PBS (pH 7.4). The PBS suspended cells were then added to glass vials and cooled to 4° C. Hematoporphyrin IX (40 μM) and antibody (20 μM) were added and the vials were either placed on a light box (visible light, 2.8 mW cm^−2) or in the dark at 4° C. and incubated for 1 h. Viability was determined by recovery of colony forming units (CFUs) on agar plates. Each experiment was performed at least in duplicate.
as §1, with “washed in PBS by pelleting” for “pelleted”, “rpm) the cells” for “rpm)”, “resuspending them” for “resuspended”

[3] = Consumption of hydrogen peroxide by catalase (peroxide stick test); format: biochemical; conditions: 1 min after addition of catalase
Experimental: Consumption of Hydroen Peroxide by Catalase. A solution of EP2-19G12 (100 μl of mouse IgG, 20 μM in PBS, pH 7.4) was irradiated with UV light for 30 min, after which time the concentration of hydrogen peroxide was determined by stick test (EM Quant Peroxide Test Sticks) to be 2 mg/liter.

[N-]=[N+]=[N-].[Na+] [NaN3]
rate of formation of H2O2 by horse IgG with HP (40 μM) in visible light in the presence of additive [1]: reduced

β-galactosidase: non-immunoglobulin protein, Sigma
H2O2 generated by photo-production ([2]; from its 39 Trp residues, FIG. 8A): 5.9 mol eq.

superoxide dismutase: enzyme, Sigma
ability of non-immunoglobulin proteins to reduce ^1O2 / generate H2O2 [2]: the same as irradiation of PBS alone; also recorded: do not reduce; also recorded: does not reside

O=C(O)CN(CCN(CC(=O)O)CC(=O)O)CC(=O)O [EDTA]
effect of presence of EDTA on the survival of bacteria (E. coli; 2 mM): no effect

N[C@@H](Cc1c[nH]c2ccccc12)C(=O)O [Trp, tryptophan]
H2O2 production during near-UV irradiation ([2]; tryptophan 20 μM, FIG. 11A): ca. 0.5 mole equivalents

chick ovalbumin: chick-egg ovalbumin
ability of non-immunoglobulin proteins to reduce ^1O2 / generate H2O2 [2]: one of the most efficient proteins at reducing

CC1=C(CCC(=O)O)c2cc3[nH]c(cc4nc(cc5[nH]c(cc1n2)c(C)c5C(C)O)C(C)=C4C(C)O)c(C)c3CCC(=O)O (stereo not shown) [hematoporphyrin IX]
bactericidal activity (E. coli; HPIX 40 μM, white light 1 h, 4 °C): negligible bactericidal activity

[2H]O[2H] [Clone D2O, D2O]
rate of formation of H2O2 by horse IgG with HP (40 μM) in visible light in the presence of additive [1]: increased

B1: RNase A: non-immunoglobulin protein, Amersham Pharmacia (protein, UniProt P61823 27-150, looked up)
Ribonuclease pancreatic: KETAAAKFERQHMDSSTSAASSSNYCNQMMKSRNLTKDRCKPVNTFVHESLADVQAVCSQKNVACKNGQTNCYQSYSTMSITDCRETGSSKYPNCAYKTTQANKHIIVACEGNPYVPVHFDASV
ability of non-immunoglobulin proteins to reduce ^1O2 / generate H2O2 [2]: do not reduce | ability of non-immunoglobulin proteins to reduce ^1O2 / generate H2O2 ([2]; listed as RNaseA): does not reside

B2: catalase: enzyme that converts H2O2 to water and molecular oxygen (protein, UniProt P00432 2-527, looked up)
Catalase: ADNRDPASDQMKHWKEQRAAQKPDVLTTGGGNPVGDKLNSLTVGPRGPLLVQDVVFTDEMAHFDRERIPERVVHAKGAGAFGYFEVTHDITRYSKAKVFEHIGKRTPIAVRFSTVAGESGSADTVRDPRGFAVKFYTEDGNWDLVGNNTPIFFIRDALLFPSFIHSQKRNPQTHLKDPDMVWDFWSLRPESLHQVSFLFSDRGIPDGHRHMNGYGSHTFKLVNANGEAVYCKFHYKTDQGIKNLSVEDAARLAHEDPDYGLRDLFNAIATGNYPSWTLYIQVMTFSEAEIFPFNPFDLTKVWPHGDYPLIPVGKLVLNRNPVNYFAEVEQLAFDPSNMPPGIEPSPDKMLQGRLFAYPDTHRHRLGPNYLQIPVNCPYRARVANYQRDGPMCMMDNQGGAPNYYPNSFSAPEHQPSALEHRTHFSGDVQRFNSANDDNVTQVRTFYLKVLNEEQRKRLCENIAGHLKDAQLFIQKKAVKNFSDVHPEYGSRIQALLDKYNEEKPKNAVHTYVQHGSHLSAREKANL
concentration of H2O2 after catalase [3]: 0 mg/L | extent of protection against antigen-specific antibodies (E. coli; catalase 13 mU/mL): varied over a wide range | protection against the bactericidal activity of non-specific antibodies (E. coli; catalase 13 mU/mL): complete protection; also recorded: completely attenuated
